Several values for one entry are separate records, joined by “and”; a condition that tells them apart may be missing. Equal entries are not always repeated.
Assays:
Rattus norvegicus [1] = settings: short-term, duration: 28 days, oral, gavage, M, Sprague-Dawley
Rattus norvegicus [2] = tested on: Rattus norvegicus
Mus musculus = settings: oral
[3] = short-term, duration: 14 days, oral, gavage, M, Sprague-Dawley, Body Weight: Decreases in body weight at 3 and 5 mg/kg/day (18 and 39%)
[4] = short-term, duration: 14 days, oral, gavage, M, Sprague-Dawley, Immunotoxicological: Decreased relative spleen weight and increases in cytokine levels
[5] = short-term, duration: 14 days, oral, gavage, M, Sprague-Dawley, Other Noncancer (Glucose: Increased serum glucose levels (1.11-fold at 1 mg/kg/day and 1.16-fold at 5 mg/kg/day)
[6] = short-term, duration: 14 days, oral, gavage, M, Sprague-Dawley, Reproductive: 85.4% decrease in serum testosterone and […] increase in estradiol levels at 5 mg/kg/day / atrophy of seminiferous tubule …
[7] = short-term, duration: 14 days, oral, gavage, M, Sprague-Dawley, Reproductive: Large vacuoles between testicular Sertoli cells and spermatogonia
[8] = developmental, duration: 17 days, gavage, F, CD1, Developmental: Delayed postnatal development [eye opening, preputial separation and vaginal opening] and decreased body weight gain …
[9] = developmental, duration: 18 days, gavage, F, Developmental: Decreased number of live births (36 and 31%) and pup survival at 1.1 and 2.0 mg/kg/day, but not […] / decreased number of …
[10] = short-term, duration: 14 days, gavage, M, BALB/c, Body Weight: ~25% decrease in body weight + Hepatic: Increases in liver weight (~160%) and increases in hepatic triglyceride (~66%) and …
[11] = subchronic, duration: 90 days, gavage, M, Reproductive: Decreased sperm motility, viability, and number / degenerative changes in seminiferous tubules / decreased litter size

## O=C(O)C(F)(F)C(F)(F)C(F)(F)C(F)(F)C(F)(F)C(F)(F)C(F)(F)C(F)(F)F [Perfluorononanoic acid]
Rattus norvegicus [1]; Gene expression_Cyp2b2
  LOEL: 0.625 mg/kg-day
Rattus norvegicus [1]; Gene expression_Cyp4a1
  LOEL: 0.625 mg/kg-day
Rattus norvegicus [1]; Hematology_Erythrocytes
  NOEL: 10 mg/kg-day
Rattus norvegicus [1]; Hematology_Hematocrit
  NOEL: 10 mg/kg-day
Rattus norvegicus [1]; Hematology_Hemoglobin
  NOEL: 10 mg/kg-day
Rattus norvegicus [1]; Hematology_Mean corpuscular hemoglobin concentration
  LOEL: 2.5 mg/kg-day
Rattus norvegicus [1]; Hematology_Mean corpuscular volume
  LOEL: 2.5 mg/kg-day
Rattus norvegicus [1]; Hematology_Platelets
  NOEL: 10 mg/kg-day
Rattus norvegicus [1]; Hematology_Reticulocytes
  LOEL: 0.625 mg/kg-day
Rattus norvegicus [1]; Nonneoplastic effects_Bone marrow - Hypocellularity
  LOEL: 2.5 mg/kg-day
Rattus norvegicus [1]; Nonneoplastic effects_Epididymis - Duct, exfoliated germ cell
  LOEL: 2.5 mg/kg-day
Rattus norvegicus [1]; Nonneoplastic effects_Epididymis - Epithelium, apoptosis
  LOEL: 5 mg/kg-day
Rattus norvegicus [1]; Nonneoplastic effects_Epididymis - Hypospermia
  LOEL: 5 mg/kg-day
Rattus norvegicus [1]; Nonneoplastic effects_Forestomach - Epithelium, hyperplasia
  LOEL: 2.5 mg/kg-day
Rattus norvegicus [1]; Nonneoplastic effects_Forestomach - Inflammation, chronic active
  LOEL: 2.5 mg/kg-day
Rattus norvegicus [1]; Nonneoplastic effects_Kidney - Nephropathy, chronic progressive
  NOEL: 10 mg/kg-day
Rattus norvegicus [1]; Nonneoplastic effects_Liver - Hepatocyte, Necrosis
  LOEL: 2.5 mg/kg-day
Rattus norvegicus [1]; Nonneoplastic effects_Liver - Hepatocyte, cytoplasmic alteration
  LOEL: 0.625 mg/kg-day
Rattus norvegicus [1]; Nonneoplastic effects_Liver - Hepatocyte, hypertrophy
  LOEL: 0.625 mg/kg-day
Rattus norvegicus [1]; Nonneoplastic effects_Liver - Hepatocyte, vacuolization cytoplasmic
  LOEL: 1.25 mg/kg-day
Rattus norvegicus [1]; Nonneoplastic effects_Lymph nodes - Mandibular, atrophy
  LOEL: 5 mg/kg-day
Rattus norvegicus [1]; Nonneoplastic effects_Lymph nodes - Mesenteric, atrophy
  LOEL: 5 mg/kg-day
Rattus norvegicus [1]; Nonneoplastic effects_Nose - Olfactory epithelium, degeneration
  NOEL: 10 mg/kg-day
Rattus norvegicus [1]; Nonneoplastic effects_Nose - Olfactory epithelium, hyperplasia
  NOEL: 10 mg/kg-day
Rattus norvegicus [1]; Nonneoplastic effects_Nose - Olfactory epithelium, inflammation, suppurative
  NOEL: 10 mg/kg-day
Rattus norvegicus [1]; Nonneoplastic effects_Nose - Respiratory epithelium, hyperplasia
  NOEL: 10 mg/kg-day
Rattus norvegicus [1]; Nonneoplastic effects_Nose - Respiratory epithelium, inflammation, chronic active
  NOEL: 10 mg/kg-day
Rattus norvegicus [1]; Nonneoplastic effects_Spleen - Atrophy
  LOEL: 5 mg/kg-day
Rattus norvegicus [1]; Nonneoplastic effects_Spleen - Extramedullary hematopoiesis, increased
  NOEL: 10 mg/kg-day
Rattus norvegicus [1]; Nonneoplastic effects_Testes - Germinal epithelium, degeneration
  LOEL: 2.5 mg/kg-day
Rattus norvegicus [1]; Nonneoplastic effects_Testes - Interstitial cell, atrophy
  LOEL: 2.5 mg/kg-day
Rattus norvegicus [1]; Nonneoplastic effects_Testes - Seminiferous tubule, spermatid retention
  LOEL: 2.5 mg/kg-day
Rattus norvegicus [1]; Nonneoplastic effects_Thymus - Atrophy
  LOEL: 2.5 mg/kg-day
Rattus norvegicus [1]; Nonneoplastic effects_Thymus - Lymphocyte, apoptosis
  NOEL: 10 mg/kg-day
Rattus norvegicus [1]; Nonneoplastic effects_Thyroid gland - Follicular cell hypertrophy
  NOEL: 10 mg/kg-day
Rattus norvegicus [1]; Organ weights_Liver - Absolute
  LOEL: 0.625 mg/kg-day
Rattus norvegicus [1]; Organ weights_Liver - Relative
  LOEL: 0.625 mg/kg-day
Rattus norvegicus [1]; Organ weights_R. adrenal gland - Absolute
  LOEL: 0.625 mg/kg-day
Rattus norvegicus [1]; Organ weights_R. adrenal gland - Relative
  LOEL: 2.5 mg/kg-day
Rattus norvegicus [1]; Organ weights_R. kidney - Absolute
  LOEL: 2.5 mg/kg-day
Rattus norvegicus [1]; Organ weights_R. kidney - Relative
  LOEL: 0.625 mg/kg-day
Rattus norvegicus [1]; Organ weights_R. testis - Absolute
  LOEL: 2.5 mg/kg-day
Rattus norvegicus [1]; Organ weights_Spleen - Absolute
  LOEL: 1.25 mg/kg-day
Rattus norvegicus [1]; Organ weights_Spleen - Relative
  LOEL: 1.25 mg/kg-day
Rattus norvegicus [1]; Organ weights_Thymus - Absolute
  LOEL: 1.25 mg/kg-day
Rattus norvegicus [1]; Organ weights_Thymus - Relative
  LOEL: 1.25 mg/kg-day
Rattus norvegicus [1]; Organ weights_Thyroid gland - Absolute
  LOEL: 2.5 mg/kg-day
Rattus norvegicus [1]; Organ weights_Thyroid gland - Relative
  LOEL: 2.5 mg/kg-day
Rattus norvegicus [1]; Reproductive toxicity_Altered sperm parameters
  LOEL: 1.25 mg/kg-day
Rattus norvegicus [1]; body weight
  LOEL: 1.25 mg/kg-day
Rattus norvegicus [2]; acute, duration: 4 hours, inhalation, nose only, M, CD, Body Weight: Reduced 18% 5 days after exposure + Hepatic: 28% increase in absolute liver weight 5 days after exposure to ?67 mg/m3 + …
  NOAEL: 67 mg/m3
Rattus norvegicus [2]; acute, duration: 4 hours, inhalation, nose only, M, CD, Body Weight: Reduced 18% 5 days after exposure + Respiratory: Lung noise / labored breathing during and after exposure
  LOAEL: 590 mg/m3
Rattus norvegicus [2]; acute, duration: 4 hours, inhalation, nose only, M, CD, Death: 14-day LC50
  LOAEL: 820 mg/m3
Rattus norvegicus [2]; developmental, duration: 20 days, oral, gavage, M/F, Sprague-Dawley, Body Weight: Reduced maternal body weight / approximately 33% on GD 7 and 10% on GD 20 + Developmental: Decreased birth weight in female …
  LOAEL: 5 mg/kg-day
Rattus norvegicus [2]; [3]
  LOAEL: 3 mg/kg-day
  NOAEL: 1 mg/kg-day
Rattus norvegicus [2]; short-term, duration: 14 days, oral, gavage, M, Sprague-Dawley, Hepatic: Decreased HDL levels at ?1 mg/kg/day
  NOAEL: 5 mg/kg-day
Rattus norvegicus [2]; short-term, duration: 14 days, oral, gavage, M, Sprague-Dawley, Hepatic: Hepatocellular vacuolation and lipid accumulation at 5 mg/kg/day
  NOAEL: 5 mg/kg-day
Rattus norvegicus [2]; short-term, duration: 14 days, oral, gavage, M, Sprague-Dawley, Immunotoxicological: 24% increase in relative thymus weight at 1 mg/kg/day / 20% decrease in thymus weight at 3 or 5 mg/kg/day, increases …
  LOAEL: 1 mg/kg-day
Rattus norvegicus [2]; [4]
  LOAEL: 5 mg/kg-day
  NOAEL: 3 mg/kg-day
Rattus norvegicus [2]; [5]
  LOAEL: 1 mg/kg-day
  NOAEL: 0.2 mg/kg-day
Rattus norvegicus [2]; [6]
  LOAEL: 5 mg/kg-day
  NOAEL: 3 mg/kg-day
Rattus norvegicus [2]; [7]
  LOAEL: 5 mg/kg-day
  NOAEL: 3 mg/kg-day
Rattus norvegicus [2]; short-term, duration: 14 days, oral, gavage, Wistar, Body Weight: Decreased body weight / magnitude of effect was not reported + Endocrine: Decreased androstenedione and testosterone …
  LOAEL: 5 mg/kg-day
Mus musculus; developmental, duration: 16 days, gavage, M/F, CD1, developmental
  NOAEL: 1 mg/kg-day
Mus musculus; [8]
  LOAEL: 3 mg/kg-day and 5 mg/kg-day
  NOAEL: 1 mg/kg-day
Mus musculus; developmental, duration: 18 days, gavage, F, Body Weight: No alterations in maternal body weight or gestational weight gain + Developmental: No alterations in the number of live pups …
  NOAEL: 2 mg/kg-day
Mus musculus; [9]
  LOAEL: 1.1 mg/kg-day
  NOAEL: 0.83 mg/kg-day
Mus musculus; reproduction developmental, duration: 17 days, gavage, F, CD1, Body Weight: 43% maternal weight loss at GD 13
  LOAEL: 10 mg/kg-day
Mus musculus; reproduction developmental, duration: 17 days, gavage, F, CD1, Hepatic: Increases in absolute and relative liver weights in dams on GD 17 and on post-weaning day 28 at ?1 mg/kg/day
  NOAEL: 10 mg/kg-day
Mus musculus; reproduction developmental, duration: 18 days, gavage, F, Body Weight: No alterations in maternal body weight or gestational weight gain + Hepatic: Increase in dam liver weight at ?0.83 mg/kg/day
  NOAEL: 2 mg/kg-day
Mus musculus; short-term, duration: 7 days, gavage, M, Hepatic: Hepatocellular hypertrophy, steatosis, and increased hepatic triglyceride levels
  NOAEL: 10 mg/kg-day
Mus musculus; short-term, duration: 14 days, diet, M/F, CD1, Death: 100% mortality before day 14
  LOAEL: 54 mg/kg-day
Mus musculus; short-term, duration: 14 days, diet, M/F, CD1, Hepatic: 50-70% increase in absolute liver weight at ?0.5 mg/kg/day
  NOAEL: 5.3 mg/kg-day
Mus musculus; [10]
  LOAEL: 5 mg/kg-day
  NOAEL: 1 mg/kg-day
Mus musculus; short-term, duration: 14 days, gavage, M, BALB/c, Immunotoxicological: Decreases in the percentages of F4/80+ and CD49b+ cells in the spleen / no alteration in the response of splenic …
  LOAEL: 1 mg/kg-day
Mus musculus; subchronic, duration: 90 days, gavage, M, Hepatic: 33% decrease in serum cholesterol
  NOAEL: 0.5 mg/kg-day
Mus musculus; [11]
  LOAEL: 0.5 mg/kg-day
  NOAEL: 0.2 mg/kg-day

Source: EPA's ToxValDB 9.5
